Results: paper PMC11581222, “Inhibition of CCl4-induced liver inflammation and fibrosis by a NEU3 inhibitor” (PLOS ONE, 2024)
Like-named read-outs stand apart in the source and are kept apart here.

Legend:
[1] = tested on: 28 receptors; test: Eurofins panel of 28 receptors, inhibition of binding; details: 10 μM 2AP
[2] = molecular target: Adrenergic β2 (Homo sapiens, UniProt P07550); test: Eurofins radioligand receptor binding inhibition; set-up: dose or concentration left out as unconfirmed
[3] = tested on: GABAA Muscimol; test: Eurofins radioligand receptor binding inhibition; details: 10 μM 2AP
[4] = molecular target: Adenosine A2A (Homo sapiens, UniProt P29274); test: Eurofins radioligand receptor binding inhibition; details: 10 μM 2AP
[5] = tested on: Potassium Channel [KATP]; test: Eurofins radioligand receptor binding inhibition; details: 10 μM 2AP
[6] = tested on: GABAA Flunitrazepam; test: Eurofins radioligand receptor binding inhibition; details: 10 μM 2AP
[7] = tested on: Calcium Channel L-Type, Dihydropyridine; test: Eurofins radioligand receptor binding inhibition; details: 10 μM 2AP
[8] = molecular target: CYP2C9 (Homo sapiens, UniProt P11712); test: Eurofins CYP450 inhibition, 3-Cyano-7-ethoxycoumarin substrate; type: in vitro ADME; details: recombinant CYP2C9, probe 3-cyano-7-ethoxycoumarin, 10 μM 2AP
[9] = molecular target: CYP1A2 (Homo sapiens, UniProt P05177); test: as above; type: in vitro ADME; details: recombinant CYP1A2, probe 3-cyano-7-ethoxycoumarin, 10 μM 2AP
Chain of CYP1A2 (P05177 whole entry): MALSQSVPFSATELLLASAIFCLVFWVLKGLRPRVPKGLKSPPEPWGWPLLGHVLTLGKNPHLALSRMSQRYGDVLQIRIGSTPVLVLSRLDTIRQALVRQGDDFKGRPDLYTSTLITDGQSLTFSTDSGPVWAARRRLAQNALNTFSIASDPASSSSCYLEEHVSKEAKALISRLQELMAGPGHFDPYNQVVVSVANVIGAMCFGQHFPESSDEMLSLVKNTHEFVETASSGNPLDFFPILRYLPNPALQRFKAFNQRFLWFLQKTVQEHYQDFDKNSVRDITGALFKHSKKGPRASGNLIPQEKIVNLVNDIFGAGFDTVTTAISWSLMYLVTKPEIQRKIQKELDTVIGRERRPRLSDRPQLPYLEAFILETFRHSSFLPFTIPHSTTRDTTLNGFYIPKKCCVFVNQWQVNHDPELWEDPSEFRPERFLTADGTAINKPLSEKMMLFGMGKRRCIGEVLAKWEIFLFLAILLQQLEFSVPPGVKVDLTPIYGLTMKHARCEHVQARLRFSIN
Experimental: (§1) CYP450 enzymes and a panel of receptors were assessed for inhibition by 10 μM 2AP using HitProfilingScreen + CYP450 LeadHunter Panel at Eurofins (Eurofins Panlabs Discovery Services, New Taipei City, Taiwan). Briefly, human recombinant CYP450 enzymes were preincubated at 37°C for 15 minutes with 10 μM 2AP. Enzyme activity was assessed by cleavage of the CYP450 fluorogenic substrates dibenzyl fluorescein (aromatase / CYP19A1, CYP2C8), 3-Cyano-7-ethoxycoumarin (CYP1A2, CYP2B6, CYP2C19, CYP2C9, and CYP2D6), or 7-Benzyloxy-4-(trifluoromethyl)-coumarin (CYP3A4), as described previously. Inhibition of receptor binding was assessed using a panel of receptors expressed on cell lines or using tissue extracts and preincubated at 25°C for 30–120 minutes with 10 μM 2AP. Cells or tissue extracts were then incubated with radiolabeled specific ligands a described (https://www.eurofinsdiscovery.com/catalog/hitprofilingscreen-cyp450-leadhunter-panel-tw/PP115) and inhibition of binding was reported (S2 Table).

[10] = molecular target: Dopamine D2S (Homo sapiens, UniProt P14416); test: Eurofins radioligand receptor binding inhibition; set-up: dose or concentration left out as unconfirmed
[11] = tested on: aromatase/CYP19A1, CYP2C8, CYP1A2, CYP2B6, CYP2C19, CYP2C9, CYP2D6 and CYP3A4 (mean over 8 enzymes); test: Eurofins CYP450 panel, mean over 8 enzymes; type: in vitro ADME; details: human, recombinant CYP450 enzymes; 10 μM 2AP; mean over 8 CYP450 enzymes; read-out: percent inhibition of CYP450 enzymes, mean ± SD, n = 8
[12] = molecular target: CYP3A4 (Homo sapiens, UniProt P08684); test: Eurofins CYP450 inhibition, 7-Benzyloxy-4-(trifluoromethyl)-coumarin substrate; type: in vitro ADME; details: recombinant CYP3A4, probe 7-benzyloxy-4-(trifluoromethyl)-coumarin, 10 μM 2AP
[13] = molecular target: Nicotinic Acetylcholine α1, Bungarotoxin (Homo sapiens, UniProt P02708+P07510+Q07001); test: biochemical; type: binding; set-up: dose or concentration left out as unconfirmed
Chain of Nicotinic Acetylcholine α1, Bungarotoxin (Q07001 22-517): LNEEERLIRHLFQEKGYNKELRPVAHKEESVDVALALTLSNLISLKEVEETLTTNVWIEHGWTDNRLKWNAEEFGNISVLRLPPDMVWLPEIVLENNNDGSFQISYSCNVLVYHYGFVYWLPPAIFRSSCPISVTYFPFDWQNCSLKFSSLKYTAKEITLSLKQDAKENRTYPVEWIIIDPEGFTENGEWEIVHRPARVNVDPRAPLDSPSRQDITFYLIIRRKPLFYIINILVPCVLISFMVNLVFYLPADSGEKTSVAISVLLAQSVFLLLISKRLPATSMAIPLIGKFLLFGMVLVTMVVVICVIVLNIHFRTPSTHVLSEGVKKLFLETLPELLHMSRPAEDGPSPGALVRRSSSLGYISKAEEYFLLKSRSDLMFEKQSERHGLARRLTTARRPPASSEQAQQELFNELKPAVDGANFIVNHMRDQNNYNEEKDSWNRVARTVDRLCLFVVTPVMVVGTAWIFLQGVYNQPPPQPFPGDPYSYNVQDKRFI
Chain of Nicotinic Acetylcholine α1, Bungarotoxin (P07510 23-517): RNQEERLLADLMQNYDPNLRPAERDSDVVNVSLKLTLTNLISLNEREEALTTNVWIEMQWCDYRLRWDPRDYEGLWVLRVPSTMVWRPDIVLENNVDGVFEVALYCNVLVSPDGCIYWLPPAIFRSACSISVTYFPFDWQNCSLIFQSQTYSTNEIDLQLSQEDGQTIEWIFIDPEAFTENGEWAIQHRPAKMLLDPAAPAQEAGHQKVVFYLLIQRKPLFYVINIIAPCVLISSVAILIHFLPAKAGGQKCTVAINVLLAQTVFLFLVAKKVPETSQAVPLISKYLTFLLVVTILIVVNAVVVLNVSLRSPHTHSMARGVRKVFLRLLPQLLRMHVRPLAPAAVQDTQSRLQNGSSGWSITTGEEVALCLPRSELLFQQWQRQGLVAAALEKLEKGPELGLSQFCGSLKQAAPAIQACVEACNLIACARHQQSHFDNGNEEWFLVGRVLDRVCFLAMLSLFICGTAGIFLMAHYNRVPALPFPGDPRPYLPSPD
Chain of Nicotinic Acetylcholine α1, Bungarotoxin (P11230 24-501, further chain): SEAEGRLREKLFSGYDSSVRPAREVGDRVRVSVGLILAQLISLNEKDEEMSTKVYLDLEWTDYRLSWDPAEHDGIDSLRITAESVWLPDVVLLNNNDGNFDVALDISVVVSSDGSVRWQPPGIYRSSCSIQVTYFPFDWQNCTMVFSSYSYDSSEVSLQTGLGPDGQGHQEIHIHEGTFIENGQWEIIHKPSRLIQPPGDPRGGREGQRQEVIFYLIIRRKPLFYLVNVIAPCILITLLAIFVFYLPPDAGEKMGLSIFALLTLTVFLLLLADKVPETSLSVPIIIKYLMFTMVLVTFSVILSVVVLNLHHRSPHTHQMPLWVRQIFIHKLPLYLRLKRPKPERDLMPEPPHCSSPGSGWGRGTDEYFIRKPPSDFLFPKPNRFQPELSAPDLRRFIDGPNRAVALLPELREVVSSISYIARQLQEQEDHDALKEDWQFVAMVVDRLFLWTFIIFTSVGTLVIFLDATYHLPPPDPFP
Chain of Nicotinic Acetylcholine α1, Bungarotoxin (P02708 21-457): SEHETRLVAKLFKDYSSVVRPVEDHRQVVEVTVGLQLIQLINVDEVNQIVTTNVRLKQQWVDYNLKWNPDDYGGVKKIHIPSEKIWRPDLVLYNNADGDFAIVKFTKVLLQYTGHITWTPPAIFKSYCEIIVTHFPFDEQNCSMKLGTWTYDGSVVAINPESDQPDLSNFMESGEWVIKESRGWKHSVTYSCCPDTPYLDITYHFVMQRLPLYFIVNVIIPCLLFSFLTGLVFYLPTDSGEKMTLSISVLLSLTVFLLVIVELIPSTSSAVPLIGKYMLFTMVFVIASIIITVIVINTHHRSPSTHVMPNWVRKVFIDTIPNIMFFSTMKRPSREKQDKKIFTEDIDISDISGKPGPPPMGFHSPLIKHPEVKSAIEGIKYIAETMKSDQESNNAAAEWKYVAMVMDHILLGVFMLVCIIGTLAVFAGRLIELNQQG

[14] = molecular target: CYP2B6 (Homo sapiens, UniProt P20813); test: Eurofins CYP450 inhibition, 3-Cyano-7-ethoxycoumarin substrate; type: in vitro ADME; details: recombinant CYP2B6, probe 3-cyano-7-ethoxycoumarin, 10 μM 2AP
[15] = molecular target: Adrenergic α1A (Rattus norvegicus, UniProt P43140); test: Eurofins radioligand receptor binding inhibition; details: 10 μM 2AP
[16] = tested on: Imidazoline I2, Central; test: Eurofins radioligand receptor binding inhibition; details: 10 μM 2AP
[17] = molecular target: Adenosine A1 (Homo sapiens, UniProt P30542); test: Eurofins radioligand receptor binding inhibition; set-up: dose or concentration left out as unconfirmed
[18] = tested on: human recombinant NEU3; set-up: method as in PMID 33144389; details: cited from earlier work
[19] = molecular target: Opiate μ (OP3, MOP) (Homo sapiens, UniProt P35372); test: Eurofins radioligand receptor binding inhibition; set-up: dose or concentration left out as unconfirmed
Chain of Opiate μ (OP3, MOP) (P35372 whole entry): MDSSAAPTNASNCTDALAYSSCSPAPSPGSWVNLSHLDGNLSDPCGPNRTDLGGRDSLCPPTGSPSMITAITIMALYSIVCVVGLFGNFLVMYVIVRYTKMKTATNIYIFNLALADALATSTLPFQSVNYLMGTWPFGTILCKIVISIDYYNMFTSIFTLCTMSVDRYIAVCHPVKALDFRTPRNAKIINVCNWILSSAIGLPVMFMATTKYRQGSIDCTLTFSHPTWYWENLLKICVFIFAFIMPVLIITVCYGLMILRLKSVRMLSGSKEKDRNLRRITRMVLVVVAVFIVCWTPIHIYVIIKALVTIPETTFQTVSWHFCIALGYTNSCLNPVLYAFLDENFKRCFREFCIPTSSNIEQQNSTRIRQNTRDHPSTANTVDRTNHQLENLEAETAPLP

[20] = molecular target: Serotonin (5-Hydroxytryptamine) 5-HT2B (Homo sapiens, UniProt P41595); test: Eurofins radioligand receptor binding inhibition; details: 10 μM 2AP
Experimental: as §1

[21] = molecular target: Norepinephrine (NET) (Homo sapiens, UniProt P23975); test: Eurofins radioligand receptor binding inhibition; details: 10 μM 2AP
Experimental: as §1

[22] = molecular target: CYP2C19 (Homo sapiens, UniProt P33261); test: Eurofins CYP450 inhibition, 3-Cyano-7-ethoxycoumarin substrate; type: in vitro ADME; details: recombinant CYP2C19, probe 3-cyano-7-ethoxycoumarin, 10 μM 2AP
[23] = molecular target: Prostanoid EP4 (Homo sapiens, UniProt P35408); test: Eurofins radioligand receptor binding inhibition; details: 10 μM 2AP
[24] = molecular target: Aromatase / CYP19A1 (Homo sapiens, UniProt P11511); test: Eurofins CYP450 inhibition, dibenzyl fluorescein substrate; type: biochemical; details: 10 μM 2AP
Chain of Aromatase / CYP19A1 (P11511 whole entry): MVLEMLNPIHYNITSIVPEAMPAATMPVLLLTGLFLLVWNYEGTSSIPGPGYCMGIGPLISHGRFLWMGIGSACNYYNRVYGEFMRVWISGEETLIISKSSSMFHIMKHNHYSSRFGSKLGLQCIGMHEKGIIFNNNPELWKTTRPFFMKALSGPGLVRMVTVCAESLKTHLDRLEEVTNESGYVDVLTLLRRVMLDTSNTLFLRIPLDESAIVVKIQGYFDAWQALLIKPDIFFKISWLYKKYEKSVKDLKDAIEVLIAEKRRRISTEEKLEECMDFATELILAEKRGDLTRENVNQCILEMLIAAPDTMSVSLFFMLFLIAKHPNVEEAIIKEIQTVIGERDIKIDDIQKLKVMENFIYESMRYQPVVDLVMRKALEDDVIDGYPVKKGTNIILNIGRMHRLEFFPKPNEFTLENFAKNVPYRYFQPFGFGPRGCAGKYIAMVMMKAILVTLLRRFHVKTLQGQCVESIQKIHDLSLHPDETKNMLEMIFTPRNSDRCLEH

[25] = molecular target: Histamine H1 (Homo sapiens, UniProt P35367); test: Eurofins radioligand receptor binding inhibition; details: 10 μM 2AP
Chain of Histamine H1 (P35367 whole entry): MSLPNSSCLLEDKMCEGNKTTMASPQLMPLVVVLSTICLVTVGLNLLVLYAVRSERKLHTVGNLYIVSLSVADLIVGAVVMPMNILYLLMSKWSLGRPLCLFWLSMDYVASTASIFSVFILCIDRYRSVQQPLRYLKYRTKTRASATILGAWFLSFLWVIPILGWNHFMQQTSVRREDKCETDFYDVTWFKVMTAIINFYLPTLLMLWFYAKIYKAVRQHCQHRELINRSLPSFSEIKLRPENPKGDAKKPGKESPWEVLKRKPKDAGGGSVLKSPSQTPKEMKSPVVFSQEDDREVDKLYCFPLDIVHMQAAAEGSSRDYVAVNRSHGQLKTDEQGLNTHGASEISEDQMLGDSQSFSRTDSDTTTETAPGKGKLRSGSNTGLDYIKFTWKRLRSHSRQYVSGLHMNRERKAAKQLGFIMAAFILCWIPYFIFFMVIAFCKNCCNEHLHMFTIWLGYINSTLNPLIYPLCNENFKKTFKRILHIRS

[26] = molecular target: Cannabinoid CB1 (Homo sapiens, UniProt P21554); test: Eurofins radioligand receptor binding inhibition; set-up: dose or concentration left out as unconfirmed
[27] = molecular target: Adrenergic β1 (Homo sapiens, UniProt P08588); test: Eurofins radioligand receptor binding inhibition; details: 10 μM 2AP
[28] = molecular target: hERG potassium channel (Homo sapiens, UniProt Q12809); test: Eurofins radioligand receptor binding inhibition; details: 10 μM 2AP
[29] = molecular target: Adrenergic α2A (Homo sapiens, UniProt P08913); test: Eurofins radioligand receptor binding inhibition; details: 10 μM 2AP
[30] = molecular target: Dopamine D1 (Homo sapiens, UniProt P21728); test: Eurofins radioligand receptor binding inhibition; set-up: dose or concentration left out as unconfirmed
[31] = molecular target: Nicotinic Acetylcholine α3β4 (Homo sapiens, UniProt P30926+P32297); test: Eurofins radioligand receptor binding inhibition; details: 10 μM 2AP
[32] = tested on: Sodium Channel, Site 2; test: Eurofins radioligand receptor binding inhibition; details: 10 μM 2AP
[33] = molecular target: Muscarinic M3 (Homo sapiens, UniProt P20309); test: Eurofins radioligand receptor binding inhibition; details: 10 μM 2AP
[34] = tested on: Glutamate; test: Eurofins radioligand receptor binding inhibition; details: 10 μM 2AP
[35] = tested on: CCl4-induced liver inflammation and fibrosis; details: for body weight, CCl4-induced weight loss: 1 mg/kg 2AP i.p. daily from day 21
[36] = molecular target: CYP2D6 (Homo sapiens, UniProt P10635); test: Eurofins CYP450 inhibition, 3-Cyano-7-ethoxycoumarin substrate; type: in vitro ADME; details: recombinant CYP2D6, probe 3-cyano-7-ethoxycoumarin, 10 μM 2AP
[37] = molecular target: Sigma σ1 (Homo sapiens, UniProt Q99720); test: Eurofins radioligand receptor binding inhibition; details: 10 μM 2AP
[38] = tested on: mouse recombinant NEU3; set-up: method as in PMID 33144389; details: pH 6.9, read-out: IC50, inhibition of release of active TGF-β1 from human latent TGF-β1; cited from earlier work
[39] = tested on: bleomycin-induced pulmonary fibrosis; details: cited from earlier work; for pulmonary fibrosis: injections, male mice
[40] = molecular target: CYP2C8 (Homo sapiens, UniProt P10632); test: Eurofins CYP450 inhibition, dibenzyl fluorescein substrate; type: in vitro ADME; details: recombinant CYP2C8, probe dibenzyl fluorescein, 10 μM 2AP
[41] = molecular target: Adrenergic α1B (Rattus norvegicus, UniProt P15823); test: Eurofins radioligand receptor binding inhibition; details: 10 μM 2AP
Chain of Adrenergic α1B (P15823 whole entry): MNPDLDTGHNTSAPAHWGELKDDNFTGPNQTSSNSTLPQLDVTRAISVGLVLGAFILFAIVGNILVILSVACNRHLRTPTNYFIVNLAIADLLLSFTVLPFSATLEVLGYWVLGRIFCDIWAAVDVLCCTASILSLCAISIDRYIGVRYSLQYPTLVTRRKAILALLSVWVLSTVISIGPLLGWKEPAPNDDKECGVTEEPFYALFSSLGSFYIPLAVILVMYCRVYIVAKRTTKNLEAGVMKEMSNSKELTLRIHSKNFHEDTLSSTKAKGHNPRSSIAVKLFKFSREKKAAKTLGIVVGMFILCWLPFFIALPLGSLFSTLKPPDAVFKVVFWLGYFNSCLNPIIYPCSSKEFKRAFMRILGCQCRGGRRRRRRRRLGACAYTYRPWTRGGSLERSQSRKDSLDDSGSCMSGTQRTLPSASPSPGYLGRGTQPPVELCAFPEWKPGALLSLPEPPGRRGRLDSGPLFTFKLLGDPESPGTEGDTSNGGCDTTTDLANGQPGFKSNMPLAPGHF

[42] = molecular target: Muscarinic M2 (Homo sapiens, UniProt P08172); test: Eurofins radioligand receptor binding inhibition; set-up: dose or concentration left out as unconfirmed
Chain of Muscarinic M2 (P08172 whole entry): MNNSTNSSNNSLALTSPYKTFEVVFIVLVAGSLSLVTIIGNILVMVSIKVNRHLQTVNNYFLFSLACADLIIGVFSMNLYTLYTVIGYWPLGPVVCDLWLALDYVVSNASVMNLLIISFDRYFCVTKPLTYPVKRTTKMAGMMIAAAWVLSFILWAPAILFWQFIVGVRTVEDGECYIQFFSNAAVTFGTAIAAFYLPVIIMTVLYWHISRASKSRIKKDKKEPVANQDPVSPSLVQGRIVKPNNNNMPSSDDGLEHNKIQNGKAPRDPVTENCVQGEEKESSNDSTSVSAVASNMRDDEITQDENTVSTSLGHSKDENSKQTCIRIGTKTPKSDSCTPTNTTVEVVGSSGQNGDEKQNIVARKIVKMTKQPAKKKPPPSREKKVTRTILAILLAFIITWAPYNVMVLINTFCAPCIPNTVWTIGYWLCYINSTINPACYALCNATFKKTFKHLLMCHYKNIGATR

[43] = tested on: MCD diet-induced liver fibrosis; set-up: method as in PMID 33378413; details: cited from earlier work
[44] = tested on: high fat diet (HFD)-induced liver inflammation, weight gain and steatosis; set-up: method as in PMID 33039353; details: injections, cited from earlier work
[45] = CCl4+2AP vs CCl4, male and female mice
[46] = treatments vs control (oil) mice

## CC(=O)c1ccccn1 [2AP, 2-acetyl pyridine]
[1]
  inhibitory effect on an additional 28 receptors: no inhibitory effect
[2]
  inhibition: 5%
[3]
  % Inhibition: 4%
[4]
  inhibition at 10 µM: 0%
[5]
  % Inhibition: -11%
[6]
  % Inhibition: -2%
[7]
  % Inhibition: 7%
[8]
  inhibition at 10 µM: 1%
[9]
  inhibition at 10 µM: 3%
[10]
  inhibition: -4%
[11]
  inhibition at 10 µM: 1.5 ± 1.2%
[12]
  inhibition at 10 µM: -2%
[13]
  inhibition: 5%
[14]
  inhibition at 10 µM: 0%
[15]
  inhibition at 10 µM: 5%
[16]
  % Inhibition: 3%
[17]
  inhibition: 10%
[18]; human recombinant NEU3, pH 6.9, read-out: IC50, inhibition of release of active TGF-β1 from human latent TGF-β1
  IC50: 40 ± 6 nM
[19]
  inhibition: 0%
[20]
  inhibition at 10 µM: 12%
[21]
  inhibition at 10 µM: 7%
[22]
  inhibition at 10 µM: 3%
[23]
  inhibition at 10 µM: 7%
[24]
  inhibition at 10 µM: 1%
[25]
  inhibition at 10 µM: 8%
[26]
  inhibition: -1%
[27]
  inhibition at 10 µM: 3%
[28]
  inhibition at 10 µM: 4%
[29]
  inhibition at 10 µM: -5%
[30]
  inhibition: -5%
[31]
  inhibition at 10 µM: -2%
[32]
  % Inhibition: 13%
[33]
  inhibition at 10 µM: 1%
[34]
  % Inhibition: 27%
[35]; 1 mg/kg 2AP i.p. daily, days 21-42
  toxic effects of daily injections: did not appear to have any obvious toxic effects
[35]; CCl4+2AP vs CCl4, female mice
  body weight, CCl4-induced weight loss: response of female mice to 2AP treatment
  number of S100A8/MRP8 positive cells (neutrophils) in liver: reduction in the number of S100A8/MRP8 positive cells
[35]; CCl4+2AP vs CCl4, male and female combined, days 39 and 40
  body weight, CCl4-induced weight loss: less weight loss
[35]; CCl4+2AP vs CCl4, male mice
  body weight, CCl4-induced weight loss: not apparent in male mice
  liver hydroxyproline levels: reduced hydroxyproline levels
[35]; [45]
  liver NEU3 staining: attenuated the CCl4-induced NEU3 staining
  liver desialylation, PNA lectin staining: reduced PNA staining
  liver fibrosis, picrosirius red staining: decreased picrosirius red staining
  liver inflammation, vessels with accumulation of immune cells (H&E): attenuated the CCl4 induced inflammation
  number of Mac2 positive cells around liver vessels: decreased the number of Mac2 positive cells in the vessel areas
  number of Mac2 positive cells in liver: decreased the number of Mac2 positive cells
  steatosis, oil red O staining of liver: no significant differences in oil red O staining
[35]; mouse, in vivo
  kidney, spleen, heart, or brown fat weights at day 42: no significant effect
  liver NEU3 staining: no significant differences in NEU3 staining
  liver desialylation, PNA lectin staining: did not significantly change PNA staining
  liver hydroxyproline levels: no significant differences in hydroxyproline levels
  liver weight at day 42: higher liver weights
  lung weight at day 42: increased lung weights
  number of Mac2 positive cells around liver vessels: no significant differences in the number of Mac2 positive cells in vessel areas
  number of Mac2 positive cells in liver: no significant differences in the number of Mac2 positive cells
  number of S100A8 positive cells in liver: no significant differences in the number of S100A8 positive cells
  overt effects on mice (body weight over 42 days): no overt effects on the mice
  steatosis, oil red O staining of liver: no significant change in the oil red O staining
  white fat weight at day 42: reduced white fat
[35]; [46]
  number of CD3 T cells in liver: no significant treatment-induced difference
  number of CLEC4F positive Kupffer cells in liver: no significant treatment-induced difference
[35]; treatments vs control mice
  number of Mac2 positive cells in parenchymal areas of the liver: no significant treatment-induced difference
[36]
  inhibition at 10 µM: 2%
[37]
  inhibition at 10 µM: 13%
[38]
  IC50: 800 ± 170 nM
[39]
  pulmonary fibrosis: attenuate bleomycin-induced pulmonary fibrosis
[40]
  inhibition at 10 µM: 0%
[41]
  inhibition at 10 µM: 2%
[42]
  inhibition: 4%

## CC(=O)N[C@H]1[C@H]([C@H](O)[C@H](O)CO)OC(C(=O)O)=C[C@@H]1O [DANA, N-acetyl-2,3-dehydro-2-deoxyneuraminic acid]
[18]; NEU3 species not specified for DANA, read-out: inhibition of active TGF-β1 release
  IC50: > 100000 nM
[43]
  MCD diet-induced liver fibrosis: inhibits methionine and choline-deficient (MCD) diet-induced liver fibrosis
[44]
  HFD induced weight gain and steatosis: inhibited HFD induced weight gain and steatosis
[44]; male mice
  HFD-induced liver inflammation: attenuate high fat diet (HFD)-induced liver inflammation
[39]
  desialylation in lung fibrosis: reversed desialylation in lung fibrosis
  pulmonary fibrosis: attenuate bleomycin-induced pulmonary fibrosis
